Experiments:
[1] = system: Human immunodeficiency virus 1; assay: Antiviral activity against HIV1 3B; format: functional, organism-based; conditions: Human immunodeficiency virus 1, 3B
[2] = target: T1, Human immunodeficiency virus type 1 integrase (Human immunodeficiency virus 1, UniProt Q7ZJM1); assay: Inhibition of HIV1 integrase strand transfer activity in presence of MnCl2
[3] = target: T1, Human immunodeficiency virus type 1 integrase; assay: Inhibition of HIV1 integrase strand transfer activity in presence of MgCl2 by plate-based electrochemiluminescent assay
[4] = target: T1, Human immunodeficiency virus type 1 integrase; assay: Inhibition of HIV1 integrase 3'-processing activity in presence of MgCl2
U-937 [5] = assay: Cytotoxicity against U937 cell line; format: functional; conditions: Homo sapiens
[6] = target: T1, Human immunodeficiency virus type 1 integrase; assay: Inhibition of HIV1 integrase 3'-processing activity in presence of MnCl2
U-937 [7] = assay: Selectivity index (CC50/EC50); format: functional
[8] = target: T1, Human immunodeficiency virus type 1 integrase; assay: Inhibition of HIV1 integrase strand transfer activity in presence of MgCl2 by gel-based assay

T1 sequence (Q7ZJM1 whole entry): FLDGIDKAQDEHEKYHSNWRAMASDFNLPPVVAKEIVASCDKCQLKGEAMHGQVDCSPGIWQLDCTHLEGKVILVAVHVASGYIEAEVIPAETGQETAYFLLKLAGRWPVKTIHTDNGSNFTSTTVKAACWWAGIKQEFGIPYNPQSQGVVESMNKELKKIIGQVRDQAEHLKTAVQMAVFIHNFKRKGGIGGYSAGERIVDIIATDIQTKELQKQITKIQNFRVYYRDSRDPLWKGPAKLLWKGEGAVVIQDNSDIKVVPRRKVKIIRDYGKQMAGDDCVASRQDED

Structure (SMILES)	EC50 [1]	IC50 [2]	IC50 [3]	IC50 [4]	CC50 (U-937 [5])	IC50 [6]	Selectivity index (U-937 [7])	IC50 [8]
CCOC(=O)C(=O)/C=C(\O)c1ccc2c(c1)c(=O)c(/C(O)=C/C(=O)C(=O)OCC)cn2Cc1ccc(F)cc1	20 µM	0.25 µM	0.38 µM	21 µM	191 µM	40 µM	9.6	0.29 µM
O=C(O)C(=O)/C=C(\O)c1ccc2c(c1)c(=O)c(/C(O)=C/C(=O)C(=O)O)cn2Cc1ccc(F)cc1	–	–	–	–	> 200 µM	–	–	–
O=C(O)C(=O)/C=C(\O)c1ccc2ncc(/C(O)=C/C(=O)C(=O)O)c(O)c2c1	36.3 µM	0.43 µM	9.1 µM	22 µM	> 200 µM	> 4.1 µM	5.5	2.9 µM
CCOC(=O)C(=O)/C=C(\O)c1ccc2ncc(/C(O)=C/C(=O)C(=O)OCC)c(O)c2c1	> 50 µM	80 µM	77 µM	28 µM	> 200 µM	> 333 µM	–	39 µM
